Measurements from patent US11214803B2, “Modulators of YAP1 expression” (Ionis Pharmaceuticals, Inc., priority 2019, dated 2022).
Strand notation (5' to 3'): a small letter for the sugar, then the base; units joined by * are phosphorothioate-linked, units joined directly phosphodiester-linked; [ ] holds rarer units or linkages, { } end groups; capitals alone tell only the bases. e = 2'-O-(2-methoxyethyl) (MOE); k = constrained ethyl (cEt); [5mC] = 5-methylcytosine; d = 2'-deoxy (DNA)

Assays:
Type in all cases: cell-based
Yap1 mRNA [1] = assay: Dose-dependent inhibition of human Yap1 in SNU-449 cells (Example 9, RTS36584); conditions: free uptake; for % UTC (Yap1 mRNA): approximately 48 hours
Description: Modified oligonucleotides described in the studies above were tested at various doses in SNU-449 cells. Cultured SNU-449 cells at a density of 10,000 cells per well were treated using free uptake with modified oligonucleotides diluted to concentrations described in the tables below. After approximately 48 hours, Yap1 mRNA levels were measured as previously described using the Human Yap1 primer-probe set RTS36584. Yap1 mRNA levels were normalized to total RNA content, as measured by RIBOGREEN®. Results are presented in the tables below as percent control of the amount of Yap1 mRNA relative to untreated control cells (% UTC). IC50s were calculated using a linear regression on a log/linear plot of the data in excel.

Yap1 mRNA [2] = assay: Antisense inhibition of human Yap1 in SNU-449 cells by modified oligonucleotides, single dose (Example 5, RTS36584); conditions: Yap1 mRNA, percent of untreated control; modified oligonucleotides targeting SEQ ID NO: 1 and 2; Table 47
In short: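 Free uptake, 2,000 nM, ~48 h, SNU-449 at 10,000 cells/well. Read-out: qRT-PCR (RTS36584), RIBOGREEN-normalised, expressed as % UTC. Asterisk = oligo hits amplicon region.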

Yap1 mRNA [3] = assay: Antisense inhibition of human Yap1 in A-431 cells by cEt gapmers, single dose (Example 3, RTS36584)
In short: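 Free uptake, 2,000 nM, ~48 h, A-431 cells. Gapmers: 16-mer 3-10-3 cEt wings, PS backbone, 5-MeC. Readout qRT-PCR, RiboGreen-normalized, % UTC.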

Yap1 mRNA [4] = assay: Dose-dependent inhibition of human Yap1 in A-431 cells (Example 8, 10,000 cells per well, RTS4814); conditions: for Yap1 mRNA, % UTC: A-431 cells, 10,000 cells per well; for IC50 / % UTC (Yap1 mRNA): A-431 cells
In short: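 A-431 cells (10,000/well) dosed with modified oligonucleotides by free uptake; Yap1 mRNA measured ~48 h later with primer-probe set RTS4814, normalized to total RNA (RIBOGREEN). Values are % of untreated control; IC50 from linear regression on log/linear plot.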

[5] = 31.3 nM, free uptake, approximately 48 hours, RTS4814
[6] = 125.0 nM, free uptake, approximately 48 hours, RTS4814
[7] = 500.0 nM, free uptake, approximately 48 hours, RTS4814
[8] = 2000.00 nM, free uptake, approximately 48 hours, RTS4814
[9] = free uptake, approximately 48 hours, RTS4814, linear regression on log/linear plot
[10] = Table 26, Yap1 mRNA by 3-10-3 cEt gapmers targeting SEQ ID NO.: 1, and 2, percent of untreated control
[11] = Table 35, Yap1 mRNA as percent of untreated control, 3-10-3 cEt gapmers targeting SEQ ID NO: 1 and 2, single dose

## 1198818 (kT*kA*dT*dT*dA*dG*dA*dG*dT*dA*dT*kG*eT*kG*eG*k[5mC]) [compound 1198818]
Yap1 mRNA [1]; 31.3 nM
  % UTC (Yap1 mRNA): 68 % UTC
Yap1 mRNA [1]; 125.0 nM
  % UTC (Yap1 mRNA): 33 % UTC
Yap1 mRNA [1]; 500.0 nM
  % UTC (Yap1 mRNA): 15 % UTC
Yap1 mRNA [1]; 2000.00 nM
  % UTC (Yap1 mRNA): 5 % UTC
Yap1 mRNA [1]; linear regression on a log/linear plot
  IC50: 100 nM

## 958500 (kT*k[5mC]*kT*dA*dT*dA*dT*dT*dA*dG*dA*dG*dT*kA*kT*kG) [Compound 958500]
Yap1 mRNA [2]
  YAP1 (% UT): 53 % UT
Yap1 mRNA [3]; Table 13, A-431 cells, 5,000 cells per well, free uptake, 2,000 nM modified oligonucleotide, approx. 48 hours, RTS36584, normalized to RIBOGREEN, Yap1 mRNA relative to untreated control cells
  YAP1 (% UTC): 5 % UTC

## 958497 (kA*kT*kA*dT*dG*dG*dA*dA*dA*dT*dT*dG*dT*k[5mC]*kT*k[5mC]) [Compound 958497]
Yap1 mRNA [2]
  YAP1 (% UT): 20 % UT
Yap1 mRNA [3]; Table 10, A-431 cells, 5,000 cells per well, free uptake, 2,000 nM oligonucleotide, approx. 48 hours, primer probe set RTS36584, Yap1 mRNA normalized to RIBOGREEN, percent of untreated control
  YAP1 (% UTC): 1 % UTC

## 1076396 (antisense k[5mC]*kT*kA*dT*dA*dT*dT*dT*dG*dA*dG*d[5mC]*d[5mC]*kA*kT*kG) [compound 1076396]
Yap1 mRNA [4]; [5]
  Yap1 mRNA, % UTC: 64 % UTC
Yap1 mRNA [4]; [6]
  Yap1 mRNA, % UTC: 22 % UTC
Yap1 mRNA [4]; [7]
  Yap1 mRNA, % UTC: 5 % UTC
Yap1 mRNA [4]; [8]
  Yap1 mRNA, % UTC: 3 % UTC
Yap1 mRNA [4]; [9]
  IC50: 40 nM
Yap1 mRNA [3]; [10]
  YAP1 (% UTC): 2 % UTC

## 1074477 (kG*kT*kT*d[5mC]*d[5mC]*dG*dA*d[5mC]*dA*dA*dA*dA*d[5mC]*k[5mC]*kA*kA; antisense) [compound 1074477]
Yap1 mRNA [4]; [5]
  Yap1 mRNA, % UTC: 77 % UTC
Yap1 mRNA [4]; [6]
  Yap1 mRNA, % UTC: 48 % UTC
Yap1 mRNA [4]; [7]
  Yap1 mRNA, % UTC: 20 % UTC
Yap1 mRNA [4]; [8]
  Yap1 mRNA, % UTC: 12 % UTC
Yap1 mRNA [4]; [9]
  IC50: 100 nM
Yap1 mRNA [3]; Table 27, Yap1 mRNA by 3-10-3 cEt gapmers targeting SEQ ID NO.: 1, and 2, percent of untreated control
  YAP1 (% UTC): 10 % UTC

## 1074613 (DNA k[5mC]*kA*kT*dA*dG*d[5mC]*dT*dT*dA*dT*dA*dT*dT*kG*kA*kA; antisense) [compound 1074613]
Yap1 mRNA [4]; 31.3 nM
  % UTC (Yap1 mRNA): 63 % UTC
Yap1 mRNA [4]; 125.0 nM
  % UTC (Yap1 mRNA): 23 % UTC
Yap1 mRNA [4]; 500.0 nM
  % UTC (Yap1 mRNA): 9 % UTC
Yap1 mRNA [4]; 2000.00 nM
  % UTC (Yap1 mRNA): 6 % UTC
Yap1 mRNA [4]; Yap1 mRNA
  IC50: 40 nM
Yap1 mRNA [3]; [11]
  YAP1 (% UTC): 7 % UTC

## 1074453 (kG*kT*kG*dA*d[5mC]*dT*dA*dA*dT*dG*dA*dT*dA*kG*k[5mC]*kA; antisense) [compound 1074453]
Yap1 mRNA [4]; 31.3 nM
  % UTC (Yap1 mRNA): 51 % UTC
Yap1 mRNA [4]; 125.0 nM
  % UTC (Yap1 mRNA): 18 % UTC
Yap1 mRNA [4]; 500.0 nM
  % UTC (Yap1 mRNA): 9 % UTC
Yap1 mRNA [4]; 2000.00 nM
  % UTC (Yap1 mRNA): 5 % UTC
Yap1 mRNA [4]; Yap1 mRNA
  IC50: < 20 nM
Yap1 mRNA [3]; [11]
  YAP1 (% UTC): 4 % UTC

## 1074444 (kA*k[5mC]*kA*dT*dT*dT*dT*dT*dG*dG*d[5mC]*dT*dT*kG*kT*k[5mC]; antisense) [compound 1074444]
Yap1 mRNA [4]; [5]
  Yap1 mRNA, % UTC: 49 % UTC
Yap1 mRNA [4]; [6]
  Yap1 mRNA, % UTC: 21 % UTC
Yap1 mRNA [4]; [7]
  Yap1 mRNA, % UTC: 7 % UTC
Yap1 mRNA [4]; [8]
  Yap1 mRNA, % UTC: 4 % UTC
Yap1 mRNA [4]; [9]
  IC50: < 20 nM
Yap1 mRNA [3]; [10]
  YAP1 (% UTC): 3 % UTC

## 1074420 (kG*kA*kT*dT*d[5mC]*dT*dT*dT*dA*dG*dA*dG*d[5mC]*k[5mC]*kA*kA; antisense) [compound 1074420]
Yap1 mRNA [4]; [5]
  Yap1 mRNA, % UTC: 38 % UTC
Yap1 mRNA [4]; [6]
  Yap1 mRNA, % UTC: 8 % UTC
Yap1 mRNA [4]; [7]
  Yap1 mRNA, % UTC: 3 % UTC
Yap1 mRNA [4]; [8]
  Yap1 mRNA, % UTC: 2 % UTC
Yap1 mRNA [4]; [9]
  IC50: < 20 nM
Yap1 mRNA [3]; Table 34, Yap1 mRNA as percent of untreated control, 3-10-3 cEt gapmers targeting SEQ ID NO: 1 and 2, single dose
  YAP1 (% UTC): 2 % UTC

## 1076399 (antisense kG*kA*kT*dA*dA*d[5mC]*dT*dT*dA*dG*dA*dG*dA*kT*kG*kT) [compound 1076399]
Yap1 mRNA [4]; [5]
  Yap1 mRNA, % UTC: 60 % UTC
Yap1 mRNA [4]; [6]
  Yap1 mRNA, % UTC: 29 % UTC
Yap1 mRNA [4]; [7]
  Yap1 mRNA, % UTC: 11 % UTC
Yap1 mRNA [4]; [8]
  Yap1 mRNA, % UTC: 6 % UTC
Yap1 mRNA [4]; [9]
  IC50: 40 nM
Yap1 mRNA [3]; Table 29, Yap1 mRNA as percent of untreated control, 3-10-3 cEt gapmers targeting SEQ ID NO.: 1, and 2
  YAP1 (% UTC): 4 % UTC

## 1074414 (kA*kA*k[5mC]*dT*dG*dT*dG*dA*dA*dA*dG*dA*dG*kG*kT*k[5mC]; antisense) [compound 1074414]
Yap1 mRNA [4]; [5]
  Yap1 mRNA, % UTC: 64 % UTC
Yap1 mRNA [4]; [6]
  Yap1 mRNA, % UTC: 34 % UTC
Yap1 mRNA [4]; [7]
  Yap1 mRNA, % UTC: 14 % UTC
Yap1 mRNA [4]; [8]
  Yap1 mRNA, % UTC: 7 % UTC
Yap1 mRNA [4]; [9]
  IC50: 100 nM
Yap1 mRNA [3]; Table 28, Yap1 mRNA as percent of untreated control, 3-10-3 cEt gapmers targeting SEQ ID NO.: 1, and 2
  YAP1 (% UTC): 6 % UTC
